Assay [1] deals with T1, Orexin/Hypocretin receptor type 1 (Rattus norvegicus, UniProt P56718).
T1 sequence (P56718 whole entry): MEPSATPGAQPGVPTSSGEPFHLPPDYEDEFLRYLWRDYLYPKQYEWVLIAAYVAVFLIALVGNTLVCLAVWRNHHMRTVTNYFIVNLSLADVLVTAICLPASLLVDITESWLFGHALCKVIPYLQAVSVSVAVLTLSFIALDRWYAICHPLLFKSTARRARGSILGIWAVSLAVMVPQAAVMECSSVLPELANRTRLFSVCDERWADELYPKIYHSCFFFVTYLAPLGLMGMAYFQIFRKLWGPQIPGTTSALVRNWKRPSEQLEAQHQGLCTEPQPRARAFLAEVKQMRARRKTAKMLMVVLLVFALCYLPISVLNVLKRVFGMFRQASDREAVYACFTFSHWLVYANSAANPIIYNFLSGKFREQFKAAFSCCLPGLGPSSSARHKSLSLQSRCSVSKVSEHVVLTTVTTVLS
The assay is described as follows: FLIPR Ca2+ Flux Assay: Chinese hamster ovary (CHO) cells expressing the rat orexin-1 receptor or the human orexin-2 receptor, are grown in Iscove's modified DMEM containing 2 mM L-glutamine, […], 1% hypoxanthine-thymidine supplement, 100 U/ml penicillin, 100 ug/ml streptomycin and 10% heat-inactivated fetal calf serum (FCS). The cells are seeded at 20,000 cells/well into Becton-Dickinson black 384-well clear bottom sterile plates coated with poly-D-lysine. All reagents were from GIBCO-Invitrogen Corp. The seeded plates are incubated overnight at 37° C. and 5% CO2. Ala-6,12 human orexin-A as the agonist is prepared as a 1 mM stock solution in 1% bovine serum albumin (BSA) and diluted in assay buffer (HBSS containing 20 mM HEPES, 0.1% BSA and 2.5 mM probenecid, pH7.4) for use in the assay at a final concentration of 70 pM. Test compounds are prepared as 10 mM stock solution in DMSO, then diluted in 384-well plates, first in DMSO, then assay buffer. On the day of the assay, cells are washed 3 times with 100 ul assay buffer and then incubated for 60 min (37° C., 5% CO2) in 60 ul assay buffer containing 1 uM Fluo-4AM ester, 0.02% pluronic acid, and 1% BSA. The dye loading solution is then aspirated and cells are washed 3 times with 100 ul assay buffer. 30 ul of that same buffer is left in each well. Within the Fluorescent Imaging Plate Reader (FLIPR, Molecular Devices), test compounds are added to the plate in a volume of 25 ul, incubated for 5 min and finally 25 ul of agonist is added. Fluorescence is measured for each well at 1 second intervals for 5 minutes and the height of each fluorescence peak is compared to the height of the fluorescence peak induced by 70 pM Ala-6,12 orexin-A with buffer in place of antagonist. In kind it is functional.

A further assay deals with T2, Orexin receptor type 2 (Homo sapiens, UniProt O43614).
T2 sequence (O43614 whole entry): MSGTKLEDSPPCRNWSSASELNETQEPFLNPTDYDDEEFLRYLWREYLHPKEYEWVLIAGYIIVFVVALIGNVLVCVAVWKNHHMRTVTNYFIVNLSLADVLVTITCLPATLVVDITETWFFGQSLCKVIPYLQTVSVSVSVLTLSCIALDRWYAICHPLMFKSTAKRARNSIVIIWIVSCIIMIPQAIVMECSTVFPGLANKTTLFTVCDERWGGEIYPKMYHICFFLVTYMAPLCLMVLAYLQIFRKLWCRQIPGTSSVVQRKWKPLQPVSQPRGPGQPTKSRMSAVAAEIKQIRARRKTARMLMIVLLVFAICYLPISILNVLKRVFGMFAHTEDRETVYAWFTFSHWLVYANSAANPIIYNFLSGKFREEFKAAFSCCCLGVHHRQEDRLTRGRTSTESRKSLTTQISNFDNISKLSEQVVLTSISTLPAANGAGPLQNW
The assay is described as follows: (§1) Radioligand Binding Assay: The inhibition constant (Ki) is determined using a radioligand binding assay (described in Bergman et. al. Bioorg. Med. Chem. Lett. 2008, 18, 1425-1430).

In assay [2] the target is T3, Orexin/Hypocretin receptor type 1 (Homo sapiens, UniProt O43613).
T3 sequence (O43613 whole entry): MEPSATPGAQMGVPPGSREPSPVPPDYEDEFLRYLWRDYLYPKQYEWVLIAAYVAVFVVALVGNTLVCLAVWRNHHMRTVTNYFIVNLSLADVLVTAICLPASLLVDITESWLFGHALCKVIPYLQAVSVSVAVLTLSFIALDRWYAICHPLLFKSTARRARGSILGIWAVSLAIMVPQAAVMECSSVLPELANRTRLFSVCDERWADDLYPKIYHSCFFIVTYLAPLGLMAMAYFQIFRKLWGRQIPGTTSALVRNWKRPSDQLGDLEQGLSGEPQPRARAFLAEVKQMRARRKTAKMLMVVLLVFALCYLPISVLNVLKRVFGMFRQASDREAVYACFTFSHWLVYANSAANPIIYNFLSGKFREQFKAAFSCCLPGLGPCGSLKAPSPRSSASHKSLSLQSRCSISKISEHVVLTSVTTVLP
The description is as §1.

Bounds are passed on as bounds.

Broadly, the IC50 is the midpoint of a concentration-inhibition curve. As usually defined, the Ki is a dissociation constant, usually derived from enzyme kinetics or from competition with a known ligand. Low readings indicate tighter binding, high ones weaker binding. Take `C[C@@H]1CC[C@@H](Oc2cc(C#N)ccn2)CN1C(=O)c1ccccc1-c1ncccn1`: the IC50 in assay [1] was 4870 nM. Further, the results for the Ki (on Orexin receptor type 2; in assay [2]) were 1.3 nM and 761 nM, respectively.
Consider `C[C@@H]1CC[C@@H](Oc2cc(C#N)ccn2)CN1C(=O)c1ccc(C#N)cc1-n1nccn1`, for which the Ki at Orexin receptor type 2 turned out to be 1360 nM; in assay [2], 34500 nM.
`C[C@@H]1CC[C@@H](Oc2cc(C#N)ccn2)CN1C(=O)c1ccccc1-n1nccn1`: in assay [1], the half-maximal inhibitory concentration (IC50) turned out to be 3650 nM. Moreover, the Ki on Orexin receptor type 2 was determined as 1.6 nM; in assay [2], 813 nM.
On to `Cc1nc(-c2ccccc2C(=O)N2C[C@H](Oc3cc(C#N)ccn3)CC[C@H]2C)no1`, for which the IC50 in assay [1] was over 10000 nM. In addition, the Ki at Orexin receptor type 2 came out at 4.5 nM; in assay [2], 1660 nM.

These data come from ChEMBL document CHEMBL3638431, “2-PYRIDYLOXY-4-NITRILE OREXIN RECEPTOR ANTAGONISTS” (2013).
